In patent US9533985B2, “Sulfonamide derivative and medicinal use thereof” (EA Pharma Co., Ltd., priority 2012, dated 2017) one finds IC50 data, which are given here for 17 compounds.

This assay addresses α4β7 integrin (Homo sapiens (Human), UniProt P13612+P26010). Put plainly: MAdCAM-1/α4β7 integrin binding inhibitory activity evaluation test in the presence of serum (2). The format is cell-based. The conditions noted are these: RPMI-8866 cells binding to mouse MAdCAM-1/Fc, same manner as Test (3), read-out: α4β7 Rank of activity with serum added. As to the method:
The ability of test substances to inhibit the binding of a human B cell line, RPMI-8866, which is known to express α4β7 integrin, to MAdCAM-1 was measured.
To 96-well microtiter plates, recombinant mouse MAdCAM-1/Fc (R&D systems) solution (1 μg/mL) diluted with buffer A (carbonate buffer, pH 9.6) was added at 50 μL/well, followed by incubation at 4° C. overnight. After washing once with PBS, Block Ace (Snow Brand Milk Products Company, Limited) was added at 150 μL/well, followed by incubation at room temperature for 2 hours. After removal, washing was conducted once with PBS.
100 μL of each test substance diluted with a binding buffer (DMEM containing 40 mM HEPES, 0.2% BSA, and 4 mM MnCl2) to various concentrations and 100 μL of RPMI-8866 cells (2×10^6 cell/mL) were added to plates coated with MAdCAM-1/Fc (5×10^5 cells/well) with human serum being contained at a final concentration of 50%, followed by incubation at 30° C. for 15 minutes to 60 minutes. After the cells were bound to each well, unbound cells were removed by washing with PBS. To the plates, buffer C (PBS containing 1.5% Triton X-100) was added at 50 μL/well to lyse the bound RPMI-8866 cells. To 30 μL of the cell lysate, 30 μL of Substrate Buffer (Promega, CytoTox 96 Non-Radioactive Cytotoxicity Assay) was added, and the reaction was allowed to proceed at room temperature in a dark place for 30 minutes. To each well, 30 μL of Stop Solution (Promega, CytoTox 96 Non-Radioactive Cytotoxicity Assay) was added, and the absorbance at 490 nm was measured by using a plate reader. Here, by the obtained absorbance, the activity of the lactate dehydrogenase (LDH) dissolved into the supernatant of each well was detected. In other words, the absorbance was proportional to the number of the RPMI-8866 cells bound to MAdCAM-1 and remaining on the plate. The test was duplicated. The binding ratios of the cells at various concentrations were determined, with the absorbance of a well containing no test substance taken as 100%. Then, the concentration IC50, at which 50% binding inhibition was achieved, was calculated.
The MAdCAM-1/α4β7 integrin binding inhibitory activity in the presence of serum was measured in the same manner as in Test (3) described above. […] The VCAM-1/α4β1 integrin binding inhibitory activity evaluation test and the MAdCAM-1/α4β7 integrin binding inhibitory activity evaluation test were carried out according to the methods described in Tests (1) and (2) described above.

Chain of α4β7 integrin (P13612 34-1032): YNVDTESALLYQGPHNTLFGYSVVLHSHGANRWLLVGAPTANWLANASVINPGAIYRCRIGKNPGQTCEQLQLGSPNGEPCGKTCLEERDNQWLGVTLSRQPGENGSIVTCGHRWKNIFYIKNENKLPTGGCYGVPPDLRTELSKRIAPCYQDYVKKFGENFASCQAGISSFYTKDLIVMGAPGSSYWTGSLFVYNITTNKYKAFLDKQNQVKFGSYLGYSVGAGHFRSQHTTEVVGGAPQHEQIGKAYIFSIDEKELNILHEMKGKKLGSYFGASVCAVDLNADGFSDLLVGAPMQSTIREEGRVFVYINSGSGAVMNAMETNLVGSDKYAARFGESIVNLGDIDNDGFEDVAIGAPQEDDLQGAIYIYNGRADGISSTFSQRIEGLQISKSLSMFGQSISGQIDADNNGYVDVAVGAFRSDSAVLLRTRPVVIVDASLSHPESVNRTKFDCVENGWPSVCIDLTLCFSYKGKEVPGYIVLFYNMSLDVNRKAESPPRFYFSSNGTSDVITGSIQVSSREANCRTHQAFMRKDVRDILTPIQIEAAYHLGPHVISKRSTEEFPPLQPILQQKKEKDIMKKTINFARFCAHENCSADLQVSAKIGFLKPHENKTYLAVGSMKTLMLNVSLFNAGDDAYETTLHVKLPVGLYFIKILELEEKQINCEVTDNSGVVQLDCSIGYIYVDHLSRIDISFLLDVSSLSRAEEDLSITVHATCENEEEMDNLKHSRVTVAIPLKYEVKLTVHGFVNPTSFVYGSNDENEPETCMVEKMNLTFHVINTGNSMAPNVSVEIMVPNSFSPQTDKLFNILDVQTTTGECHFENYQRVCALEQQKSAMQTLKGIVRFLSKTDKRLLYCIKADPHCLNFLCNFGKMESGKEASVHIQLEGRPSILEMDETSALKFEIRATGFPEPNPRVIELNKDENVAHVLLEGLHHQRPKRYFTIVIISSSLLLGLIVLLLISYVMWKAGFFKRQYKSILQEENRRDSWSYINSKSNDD
Chain of α4β7 integrin (P26010 20-798): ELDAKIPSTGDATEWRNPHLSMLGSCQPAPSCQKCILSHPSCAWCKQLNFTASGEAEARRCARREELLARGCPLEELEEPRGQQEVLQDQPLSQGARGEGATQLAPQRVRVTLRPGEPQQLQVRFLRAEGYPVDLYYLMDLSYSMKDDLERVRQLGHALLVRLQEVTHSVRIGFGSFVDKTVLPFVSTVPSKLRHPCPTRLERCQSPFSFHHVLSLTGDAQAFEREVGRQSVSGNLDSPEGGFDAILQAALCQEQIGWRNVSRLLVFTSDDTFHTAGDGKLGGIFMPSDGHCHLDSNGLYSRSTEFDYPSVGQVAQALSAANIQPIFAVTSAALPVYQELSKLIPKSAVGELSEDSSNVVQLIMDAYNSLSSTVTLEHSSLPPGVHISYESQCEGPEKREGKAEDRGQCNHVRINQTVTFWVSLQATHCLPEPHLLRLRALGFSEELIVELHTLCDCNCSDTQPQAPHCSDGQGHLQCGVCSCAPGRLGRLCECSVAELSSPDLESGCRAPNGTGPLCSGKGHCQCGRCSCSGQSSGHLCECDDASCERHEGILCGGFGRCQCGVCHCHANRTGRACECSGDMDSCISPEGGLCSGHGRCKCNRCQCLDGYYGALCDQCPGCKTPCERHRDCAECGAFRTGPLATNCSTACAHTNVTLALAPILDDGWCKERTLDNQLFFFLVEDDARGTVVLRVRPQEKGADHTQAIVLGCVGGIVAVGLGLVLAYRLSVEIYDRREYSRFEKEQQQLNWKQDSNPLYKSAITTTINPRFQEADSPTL

Turning to `Cn1c(=O)n(-c2ccc(C[C@H](NC(=O)c3cc(F)c(NS(=O)(=O)c4ccccc4)cc3F)C(=O)O)nc2)c(=O)c2ccncc21` [Example 137, N-{2,5-Difluoro-4-[(phenylsulfonyl)amino]benzoyl}-3-[5-(1-methyl-2,4-dioxo-1,4-dihydropyrido[3,4-d]pyrimidin-3(2H)-yl)pyridin-2-yl]-L-alanine], the IC50 lay within 50 to 200 nM.
The result for `Cn1c(=O)n(-c2ccc(C[C@H](NC(=O)c3cc(F)c(NS(=O)(=O)c4ccccn4)cc3F)C(=O)O)nc2)c(=O)c2ccncc21` [Example 138, N-{2,5-Difluoro-4-[(pyridin-2-yl-sulfonyl)amino]benzoyl}-3-[5-(1-methyl-2,4-dioxo-1,4-dihydropyrido[3,4-d]pyrimidin-3(2H)-yl)pyridin-2-yl]-L-alanine] reads 50 to 200 nM.
Turning to `Cn1c(=O)n(-c2ccc(C[C@H](NC(=O)c3ccc(NS(=O)(=O)c4ccco4)cc3F)C(=O)O)nc2)c(=O)c2ccncc21` [Example 139, N-{2-Fluoro-4-[(2-furylsulfonyl)amino]benzoyl}-3-[5-(1-methyl-2,4-dioxo-1,4-dihydropyrido[3,4-d]pyrimidin-3(2H)-yl)pyridin-2-yl]-L-alanine], the IC50 lay in the range of 10 to 50 nM.
The value for `Cn1c(=O)n(-c2ccc(C[C@H](NC(=O)c3cc(F)c(NS(=O)(=O)c4ccco4)cc3F)C(=O)O)nc2)c(=O)c2ccncc21` [Example 140, N-{2,5-Difluoro-4-[(2-furylsulfonyl)amino]benzoyl}-3-[5-(1-methyl-2,4-dioxo-1,4-dihydropyrido[3,4-d]pyrimidin-3(2H)-yl)pyridin-2-yl]-L-alanine] was 10 to 50 nM; that for `CC(=O)c1ccc(S(=O)(=O)Nc2cc(F)c(C(=O)N[C@@H](Cc3ccc(-n4c(=O)c5ccncc5n(C)c4=O)cn3)C(=O)O)cc2F)cc1` [Example 141, N-(4-{[(4-Acetylphenyl)sulfonyl]amine}-2,5-difluorobenzoyl)-3-[5-(1-methyl-2,4-dioxo-1,4-dihydropyrido[3,4-d]pyrimidin-3(2H)-yl)pyridin-2-yl]-L-alanine] was 10 to 50 nM; that for `Cn1c(=O)n(-c2ccc(C[C@H](NC(=O)c3ccc(NS(=O)(=O)c4ccccn4)cc3F)C(=O)O)nc2)c(=O)c2ccncc21` [Example 142, N-{2-Fluoro-4-[(pyridin-2-yl-sulfonyl)amino]benzoyl}-3-[5-(1-methyl-2,4-dioxo-1,4-dihydropyrido[3,4-d]pyrimidin-3(2H)-yl)pyridin-2-yl]-L-alanine] was 10 to 50 nM.
Turning to `COc1ccccc1S(=O)(=O)Nc1cc(F)c(C(=O)N[C@@H](Cc2ccc(-n3c(=O)c4ccncc4n(C)c3=O)cc2)C(=O)O)c(F)c1` [Example 143, N-(2,6-Difluoro-4-{[(2-methoxyphenyl)sulfonyl]amino}benzoyl)-4-(1-methyl-2,4-dioxo-1,4-dihydropyrido[3,4-d]pyrimidin-3(2H)-yl)-L-phenylalanine], the IC50 is no more than 10 nM.
`Cn1c(=O)n(-c2ccc(C[C@H](NC(=O)c3ccc(NS(=O)(=O)c4ccc5c(c4)C(=O)CC5)cc3F)C(=O)O)nc2)c(=O)c2ccncc21` [Example 144, N-(2-Fluoro-4-{[(3-oxo-2,3-dihydro-1H-inden-5-yl)sulfonyl]amino}benzoyl)-3-[5-(1-methyl-2,4-dioxo-1,4-dihydropyrido[3,4-d]pyrimidin-3(2H)-yl)pyridin-2-yl]-L-alanine]: the IC50 lay in the range of 50 to 200 nM.
The result for `COc1ccccc1S(=O)(=O)Nc1cc(F)c(C(=O)N[C@@H](Cc2ccc(-n3c(=O)c4ccncc4n(C)c3=O)cn2)C(=O)O)c(F)c1` [Example 145, N-(2,6-Difluoro-4-{[(2-methoxyphenyl)sulfonyl]amino}benzoyl)-3-[5-(1-methyl-2,4-dioxo-1,4-dihydropyrido[3,4-d]pyrimidin-3(2H)-yl)pyridin-2-yl]-L-alanine] reads no more than 10 nM.
In the case of `CCOc1ccccc1S(=O)(=O)Nc1cc(F)c(C(=O)N[C@@H](Cc2ccc(-n3c(=O)c4ccncc4n(C)c3=O)cn2)C(=O)O)c(F)c1` [Example 146, N-(4-{[(2-Ethoxyphenyl)sulfonyl]amino}-2,6-difluorobenzoyl)-3-[5-(1-methyl-2,4-dioxo-1,4-dihydropyrido[3,4-d]pyrimidin-3(2H)-yl)pyridin-2-yl]-L-alanine], the IC50 was in the range of 10 to 50 nM.
For the compound `COc1cc2c(=O)n(-c3ccc(C[C@H](NC(=O)c4ccc(NS(=O)(=O)c5ccco5)cc4F)C(=O)O)cc3)c(=O)n(C)c2cn1` [Example 147, N-{2-Fluoro-4-[(2-furylsulfonyl)amino]benzoyl}-4-(6-methoxy-1-methyl-2,4-dioxo-1,4-dihydropyrido[3,4-d]pyrimidin-3(2H)-yl)-L-phenylalanine], the IC50 fell in the range of 10 to 50 nM.
As for `Cn1c(=O)n(-c2ccc(C[C@H](NC(=O)c3c(F)cc(NS(=O)(=O)c4ccc(-c5ccco5)cc4)cc3F)C(=O)O)nc2)c(=O)c2ccncc21` [Example 148, N-[2,6-Difluoro-4-({[4-(2-furyl)phenyl]sulfonyl}amino)benzoyl]-3-[5-(1-methyl-2,4-dioxo-1,4-dihydropyrido[3,4-d]pyrimidin-3(2H)-yl)pyridin-2-yl]-L-alanine], the IC50 fell in the range of 10 to 50 nM.
As for `Cn1c(=O)n(-c2ccc(C[C@H](NC(=O)c3cc(F)c(NS(=O)(=O)c4ccco4)cc3F)C(=O)O)cc2)c(=O)c2ccncc21` [Example 149, N-{2,5-Difluoro-4-[(2-furylsulfonyl)amino]benzoyl}-4-(1-methyl-2,4-dioxo-1,4-dihydropyrido[3,4-d]pyrimidin-3(2H)-yl)-L-phenylalanine], the IC50 is 10 to 50 nM.
For `Cn1c(=O)n(-c2ccc(C[C@H](NC(=O)c3cc(F)c(NS(=O)(=O)c4ccco4)cc3F)C(=O)O)cn2)c(=O)c2ccncc21` [Example 150, N-{2,5-Difluoro-4-[(2-furylsulfonyl)amino]benzoyl}-3-[6-(1-methyl-2,4-dioxo-1,4-dihydropyrido[3,4-d]pyrimidin-3(2H)-yl)pyridin-3-yl]-L-alanine], the IC50 was 10 to 50 nM.
For the compound `Cc1ccc(-c2ccc(S(=O)(=O)Nc3cc(F)c(C(=O)N[C@@H](Cc4ccc(-n5c(=O)c6ccncc6n(C)c5=O)cc4)C(=O)O)c(F)c3)nc2)cn1` [Example 151, N-(2,6-Difluoro-4-{[(6′-methyl-3,3′-bipyridin-6-yl)sulfonyl]amino}benzoyl)-4-(1-methyl-2,4-dioxo-1,4-dihydropyrido[3,4-d]pyrimidin-3(2H)-yl)-L-phenylalanine], the IC50 lay within 10 to 50 nM.
The value for `CCNC(=O)c1ccc(S(=O)(=O)Nc2cc(F)c(C(=O)N[C@@H](Cc3ccc(-n4c(=O)c5c(ncn5C)n(C)c4=O)cc3)C(=O)O)c(F)c2)cc1` [Example 152, 4-(3,7-Dimethyl-2,6-dioxo-2,3,6,7-tetrahydro-1H-purin-1-yl)-N-{4-[({4-[(ethylamino)carbonyl]phenyl}sulfonyl)amino]-2,6-difluorobenzoyl}-L-phenylalanine] was no more than 10 nM.
In the case of `Cn1cnc2c1c(=O)n(-c1ccc(C[C@H](NC(=O)c3c(F)cc(NS(=O)(=O)c4ccc(-c5ncccn5)cn4)cc3F)C(=O)O)cc1)c(=O)n2C` [Example 153, N-(2,6-Difluoro-4-{[(5-pyrimidin-2-yl-pyridin-2-yl)sulfonyl]amino}benzoyl)-4-(3,7-dimethyl-2,6-dioxo-2,3,6,7-tetrahydro-1H-purin-1-yl)-L-phenylalanine], the IC50 is no more than 10 nM.
